Experimental data as given in US20230143604A1, “QW DOSING OF GIP RECEPTOR AGONIST PEPTIDE COMPOUNDS AND USES THEREOF” (TAKEDA PHARMACEUTICAL COMPANY LIMITED, priority 2020, published 2023).
Starred links: 1 amine or outer side, 2 acyl side, 3 side chain; linkers in the order of their positions; H or OH if unused. Non-standard residues stand in square brackets, D forms with d. Residues, ends and D or L forms follow the SMILES beside them. Groups on a side chain read outwards from the residue. *: point of attachment. C17 diacid = O=C(O)CCCCCCCCCCCCCCCC(=O)*; γGlu = O=C(O)[C@H](CCC(=O)[*:2])N[*:1]; NMeY = CN[C@@H](Cc1ccc(O)cc1)C(=O)O; AEEA = NCCOCCOCC(=O)O; Aib = CC(C)(N)C(=O)O

assay: physchem; details: pH 7.4, aqueous buffer
Summary of the method: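 Solubility at pH 7.4 determined by stepwise addition of 200 mM phosphate buffer in 100 μL increments to 3 mg peptide, mixing briefly each time, until no insoluble material remained, then measured by liquid chromatography.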

Row | Structure (SMILES) | solubility [µg/mL]
1 | CC[C@H](C)[C@H](NC(=O)[C@H](Cc1ccccc1)NC(=O)[C@@H](NC(=O)CNC(=O)[C@H](CCC(=O)O)NC(=O)C(C)(C)NC(=O)[C@H](Cc1ccc(O)cc1)NC)[C@@H](C)O)C(=O)N[C@@H](CO)C(=O)N[C@@H](CC(=O)O)C(=O)N[C@@H](Cc1ccc(O)cc1)C(=O)N[C@@H](CO)C(=O)N[C@H](C(=O)NC(C)(C)C(=O)N[C@@H](CCCCNC(=O)CNC(=O)CNC(=O)CNC(=O)CNC(=O)CNC(=O)CC[C@H](NC(=O)CC[C@H](NC(=O)CCCCCCCCCCCCCCCC(=O)O)C(=O)O)C(=O)O)C(=O)N[C@@H](CC(=O)O)C(=O)N[C@@H](CCCNC(=N)N)C(=O)NC(C)(C)C(=O)N[C@@H](C)C(=O)N[C@@H](CCC(N)=O)C(=O)NC(C)(C)C(=O)N[C@@H](CC(N)=O)C(=O)N[C@@H](Cc1ccccc1)C(=O)N[C@H](C(=O)N[C@@H](CC(N)=O)C(=O)N[C@@H](Cc1c[nH]c2ccccc12)C(=O)N[C@@H](CC(C)C)C(=O)N[C@@H](CC(C)C)C(=O)N[C@@H](C)C(=O)N[C@@H](CCC(N)=O)C(=O)N[C@@H](CCCNC(=N)N)C(N)=O)C(C)C)[C@@H](C)CC [Compound 264] | < 6000
2 | CC[C@H](C)[C@H](NC(=O)[C@H](Cc1ccccc1)NC(=O)[C@@H](NC(=O)CNC(=O)[C@H](CCC(=O)O)NC(=O)C(C)(C)NC(=O)[C@H](Cc1ccc(O)cc1)NC)[C@@H](C)O)C(=O)N[C@@H](CO)C(=O)N[C@@H](CC(=O)O)C(=O)N[C@@H](Cc1ccc(O)cc1)C(=O)N[C@@H](CO)C(=O)N[C@H](C(=O)NC(C)(C)C(=O)N[C@@H](CCCCNC(=O)CNC(=O)CNC(=O)CNC(=O)CNC(=O)CNC(=O)CC[C@H](NC(=O)CCCCCCCCCCCCCCCC(=O)O)C(=O)O)C(=O)N[C@@H](CC(=O)O)C(=O)N[C@@H](CCCNC(=N)N)C(=O)NC(C)(C)C(=O)N[C@@H](C)C(=O)N[C@@H](CCC(N)=O)C(=O)NC(C)(C)C(=O)N[C@@H](CC(=O)O)C(=O)N[C@@H](Cc1ccccc1)C(=O)N[C@H](C(=O)N[C@@H](CC(N)=O)C(=O)N[C@@H](Cc1c[nH]c2ccccc12)C(=O)N[C@@H](CC(C)C)C(=O)N[C@@H](CC(C)C)C(=O)N[C@@H](C)C(=O)N[C@@H](CCC(N)=O)C(=O)N[C@@H](CCCNC(=N)N)C(N)=O)C(C)C)[C@@H](C)CC [Compound 265] | ≥ 7500

same assay, conditions: pH 7.4, aqueous buffer, pH 7.4 Phosphate Buffer - Solubility, 200 mM Phosphate buffer pH 7.4

Row | Structure (SMILES) | solubility [µg/mL]
3 | CC[C@H](C)[C@H](NC(=O)[C@H](CO)NC(=O)[C@H](Cc1ccc(O)cc1)NC(=O)[C@H](CC(=O)O)NC(=O)[C@H](CO)NC(=O)[C@@H](NC(=O)[C@H](Cc1ccccc1)NC(=O)[C@@H](NC(=O)CNC(=O)[C@H](CCC(=O)O)NC(=O)C(C)(C)NC(=O)[C@H](Cc1ccc(O)cc1)NC)[C@@H](C)O)[C@@H](C)CC)C(=O)N[C@@H](C)C(=O)N[C@@H](CCCCNC(=O)CNC(=O)CNC(=O)CNC(=O)CNC(=O)CNC(=O)CC[C@H](NC(=O)CCCCCCCCCCCCCCCC(=O)O)C(=O)O)C(=O)N[C@@H](CC(=O)O)C(=O)N[C@@H](CCCNC(=N)N)C(=O)NC(C)(C)C(=O)N[C@@H](C)C(=O)N[C@@H](CCC(N)=O)C(=O)NC(C)(C)C(=O)N[C@@H](CC(N)=O)C(=O)N[C@@H](Cc1ccccc1)C(=O)N[C@H](C(=O)N[C@@H](CC(N)=O)C(=O)N[C@@H](Cc1c[nH]c2ccccc12)C(=O)N[C@@H](CC(C)C)C(=O)N[C@@H](CC(C)C)C(=O)N[C@@H](C)C(=O)N[C@@H](CCC(N)=O)C(=O)N[C@@H](CCCNC(=N)N)C(=O)N1CCC[C@H]1C(=O)N[C@@H](CO)C(=O)N[C@@H](CO)C(=O)NCC(=O)N[C@@H](C)C(=O)N1CCC[C@H]1C(=O)N1CCC[C@H]1C(=O)N1CCC[C@H]1C(=O)N[C@@H](CO)C(N)=O)C(C)C [Compound 260] | < 6000
4 | CC[C@H](C)[C@H](NC(=O)[C@H](Cc1ccccc1)NC(=O)[C@@H](NC(=O)CNC(=O)[C@H](CCC(=O)O)NC(=O)C(C)(C)NC(=O)[C@H](Cc1ccc(O)cc1)NC)[C@@H](C)O)C(=O)N[C@@H](CO)C(=O)N[C@@H](CC(=O)O)C(=O)N[C@@H](Cc1ccc(O)cc1)C(=O)N[C@@H](CO)C(=O)N[C@H](C(=O)NC(C)(C)C(=O)N[C@@H](CCCCNC(=O)CNC(=O)CNC(=O)CNC(=O)CNC(=O)CNC(=O)CC[C@H](NC(=O)CCCCCCCCCCCCCCCC(=O)O)C(=O)O)C(=O)N[C@@H](CC(=O)O)C(=O)N[C@@H](CCCNC(=N)N)C(=O)NC(C)(C)C(=O)N[C@@H](C)C(=O)N[C@@H](CCC(N)=O)C(=O)NC(C)(C)C(=O)N[C@@H](CC(N)=O)C(=O)N[C@@H](Cc1ccccc1)C(=O)N[C@H](C(=O)N[C@@H](CC(N)=O)C(=O)N[C@@H](Cc1c[nH]c2ccccc12)C(=O)N[C@@H](CC(C)C)C(=O)N[C@@H](CC(C)C)C(=O)N[C@@H](C)C(=O)N[C@@H](CCC(N)=O)C(=O)N[C@@H](CCCNC(=N)N)C(=O)N1CCC[C@H]1C(=O)N[C@@H](CO)C(=O)N[C@@H](CO)C(=O)NCC(=O)N[C@@H](C)C(=O)N1CCC[C@H]1C(=O)N1CCC[C@H]1C(=O)N1CCC[C@H]1C(=O)N[C@@H](CO)C(N)=O)C(C)C)[C@@H](C)CC [Compound 261] | < 6000
5 | CC[C@H](C)[C@H](NC(=O)[C@H](Cc1ccccc1)NC(=O)[C@@H](NC(=O)CNC(=O)[C@H](CCC(=O)O)NC(=O)C(C)(C)NC(=O)[C@H](Cc1ccc(O)cc1)NC)[C@@H](C)O)C(=O)N[C@@H](CO)C(=O)N[C@@H](CC(=O)O)C(=O)N[C@@H](Cc1ccc(O)cc1)C(=O)N[C@@H](CO)C(=O)N[C@H](C(=O)NC(C)(C)C(=O)N[C@@H](CCCCNC(=O)CNC(=O)CNC(=O)CNC(=O)CNC(=O)CNC(=O)CC[C@H](NC(=O)CCCCCCCCCCCCCCCCC(=O)O)C(=O)O)C(=O)N[C@@H](CC(=O)O)C(=O)N[C@@H](CCCNC(=N)N)C(=O)NC(C)(C)C(=O)N[C@@H](C)C(=O)N[C@@H](CCC(N)=O)C(=O)NC(C)(C)C(=O)N[C@@H](CC(N)=O)C(=O)N[C@@H](Cc1ccccc1)C(=O)N[C@H](C(=O)N[C@@H](CC(N)=O)C(=O)N[C@@H](Cc1c[nH]c2ccccc12)C(=O)N[C@@H](CC(C)C)C(=O)N[C@@H](CC(C)C)C(=O)N[C@@H](C)C(=O)N[C@@H](CCC(N)=O)C(=O)N[C@@H](CCCNC(=N)N)C(=O)N1CCC[C@H]1C(=O)N[C@@H](CO)C(=O)N[C@@H](CO)C(=O)NCC(=O)N[C@@H](C)C(=O)N1CCC[C@H]1C(=O)N1CCC[C@H]1C(=O)N1CCC[C@H]1C(=O)N[C@@H](CO)C(N)=O)C(C)C)[C@@H](C)CC [Compound 262] | < 6000
6 | CC[C@H](C)[C@H](NC(=O)[C@H](Cc1ccccc1)NC(=O)[C@@H](NC(=O)CNC(=O)[C@H](CCC(=O)O)NC(=O)C(C)(C)NC(=O)[C@H](Cc1ccc(O)cc1)NC)[C@@H](C)O)C(=O)N[C@@H](CO)C(=O)N[C@@H](CC(=O)O)C(=O)N[C@@H](Cc1ccc(O)cc1)C(=O)N[C@@H](CO)C(=O)N[C@H](C(=O)NC(C)(C)C(=O)N[C@@H](CCCCNC(=O)COCCOCCNC(=O)COCCOCCNC(=O)CC[C@H](NC(=O)CCCCCCCCCCCCCCCC(=O)O)C(=O)O)C(=O)N[C@@H](CC(=O)O)C(=O)N[C@@H](CCCNC(=N)N)C(=O)NC(C)(C)C(=O)N[C@@H](C)C(=O)N[C@@H](CCC(N)=O)C(=O)NC(C)(C)C(=O)N[C@@H](CC(N)=O)C(=O)N[C@@H](Cc1ccccc1)C(=O)N[C@H](C(=O)N[C@@H](CC(N)=O)C(=O)N[C@@H](Cc1c[nH]c2ccccc12)C(=O)N[C@@H](CC(C)C)C(=O)N[C@@H](CC(C)C)C(=O)N[C@@H](C)C(=O)N[C@@H](CCC(N)=O)C(=O)N[C@@H](CCCNC(=N)N)C(=O)N1CCC[C@H]1C(=O)N[C@@H](CO)C(=O)N[C@@H](CO)C(=O)NCC(=O)N[C@@H](C)C(=O)N1CCC[C@H]1C(=O)N1CCC[C@H]1C(=O)N1CCC[C@H]1C(=O)N[C@@H](CO)C(N)=O)C(C)C)[C@@H](C)CC [Compound 263] (H-[NMeY][Aib]EGTFISDYSI[Aib]K([AEEA-AEEA-γGlu-C17 diacid])DR[Aib]AQ[Aib]NFVNWLLAQRPSSGAPPPS-NH2) | ≥ 7500
